Values of other authors, collected in patent US20030039701A1 (priority 2000, published 2003).
Read-outs that look alike come from different tables or passages of the source.

What was measured:
young female rats = details: mini-osmotic pumps
hypogonadal men = details: Caucasian group
[1] = test system: prostate and seminal vesicle weights
androgen receptor = details: seminal vesicle
[2] = 300 mg/wk for six weeks; TE: shoulders; ND: shoulders and chest
HIV-infected men = details: pharmacological doses
patients on dialysis = details: compared with placebo
[3] = supplementation
aromatase = target: T1, aromatase (Homo sapiens, UniProt P11511); details: relative to chrysin, AG, ANG
T1 sequence (P11511 1-503): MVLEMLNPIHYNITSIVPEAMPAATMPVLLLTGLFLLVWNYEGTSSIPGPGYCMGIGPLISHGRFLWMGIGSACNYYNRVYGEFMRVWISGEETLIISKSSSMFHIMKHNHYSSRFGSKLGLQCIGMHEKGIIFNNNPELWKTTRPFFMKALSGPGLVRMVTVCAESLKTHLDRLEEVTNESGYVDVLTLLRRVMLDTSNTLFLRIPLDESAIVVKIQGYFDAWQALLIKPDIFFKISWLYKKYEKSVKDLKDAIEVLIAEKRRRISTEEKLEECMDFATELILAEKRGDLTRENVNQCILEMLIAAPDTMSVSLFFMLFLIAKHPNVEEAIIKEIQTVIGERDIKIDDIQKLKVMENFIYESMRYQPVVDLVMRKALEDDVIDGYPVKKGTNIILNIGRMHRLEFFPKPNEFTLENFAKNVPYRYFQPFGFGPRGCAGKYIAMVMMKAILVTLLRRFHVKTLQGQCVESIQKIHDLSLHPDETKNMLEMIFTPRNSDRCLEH

[4] = not given; remark: listed apart in the source

C[C@]12CC[C@H]3[C@@H](CC=C4C[C@@H](O)CC[C@@]43C)[C@@H]1CC[C@@H]2O [5-androstenediol]
proportion of protein in the body composition (young female rats): increased the proportion of protein

C[C@@H]1CC2=CC(=O)CC[C@@H]2[C@H]2CC[C@]3(C)[C@@H](O)CC[C@H]3[C@@H]21 [MENT, 7α-methyl-19-nor-testosterone]
sexual interest and activity, spontaneous erection (hypogonadal men): significant increases
anabolic potency relative to testosterone (levator ani muscles): ten-times as potent as testosterone
androgenic potency relative to testosterone [1]: four- to five-times more androgenic than testosterone

C[C@]12CC[C@H]3[C@@H](CCC4=CC(=O)CC[C@@]43C)[C@@H]1CC[C@@H]2O [testosterone]
change of affinity to the androgen receptor on conversion by 5-α-reductase (androgen receptor): increasing by seven- to eight-fold
proportion of protein in the body composition (young female rats): increased the proportion of protein

CCCCCCC(=O)O[C@H]1CC[C@H]2[C@@H]3CCC4=CC(=O)CC[C@]4(C)[C@H]3CC[C@]12C [TE, testosterone enanthate]
sexual interest and activity, spontaneous erection (hypogonadal men): significant increases
body circumferences (of fifteen) [2]: significant increases

CCCCCCCCCC(=O)O[C@H]1CC[C@H]2[C@@H]3CCC4=CC(=O)CC[C@@H]4[C@H]3CC[C@]12C [ND, 19-nor-testosterone decanoate]
total weight, lean body mass, body cell mass, muscle size and strength (HIV-infected men): significant gains
body circumferences (of fifteen) [2]: significant increases

C[C@]12CC[C@H]3[C@@H](CCC4=CC(=O)CC[C@@H]43)[C@@H]1CC[C@@H]2O [nandrolone, 19-nor-testosterone]
decrease in HDL-cholesterol (body builders): 25-27%
decrease in diastolic blood pressure (body builders): 25-27%
azoospermia (lack of sperm) (nandrolone use): azoospermia
energy expenditure (young female rats): increased energy expenditure
lean body mass (patients on dialysis): increased significantly

C[C@]12CC[C@H]3[C@@H](CCC4=C[C@@H](O)CC[C@@]43C)[C@@H]1CC[C@@H]2O [4-androstenediol]
urine testosterone concentration relative to 4-androstenedione [3]: 10 fold

COc1ccc(-c2coc3cc(O)cc(O)c3c2=O)cc1 [Biochanin A, 5,7-dihydroxy-4′-methoxyisoflavone]
aromatase inhibition (aromatase): inhibited aromatase, but to a lesser degree

C[C@]12CC[C@H](O)CC1=CC[C@@H]1[C@@H]2CC[C@]2(C)C(=O)CC[C@@H]12 [DHEA, dehydro-epiandrosterone]
plasma testosterone ([4]; 50 mg dose): restored plasma testosterone to levels similar to those observed in young women
plasma testosterone ([4]; 200 mg dose): slightly below the levels observed in normal men
